Assay results from patent publication US20100254965A1, “Adenosine Signaling in Diagnosis, Treatment, and Prevention of Priapism and Erectile Dysfunction” (BOARD OF REGENTS ,THE UNIVERSITY OF TEXAS SYSTEM, priority 2006, published 2010).

Tested on: corpus cavernosal smooth muscle cells (CCSM)
Assay: cGMP levels in primary CCSM / PVSM
Assay type: cell-based, mouse
Conditions: CCSM/PVSM of both wild type and A2BR deficient mice, 10 min
Text: Results for wild-type and A2B^−/− mouse were statistically significant, p<0.01.
FIG. 18. Adenosine stimulated both cAMP and cGMP induction in corpus cavernosal smooth muscle cells (CCSM) via A2BR activation. (a) Adenosine receptor expression profile in purified primary CCSM. CCSM were purified from adult mouse penes. […] (b) CCSM were isolated and cultured from mouse penes. The cells were switched to serum-free medium and treated with different concentrations of adenosine with or without A2BR antagonist (MRS1706-10 μM), A2AR antagonist (ZM241385-50 nM) or A2AR agonist (CGS-21680-10 μM) alone for 10 min. Then cellular extracts were collected and cAMP levels were measured using an ELISA kit. The data represent mean±SE. *p<0.05, adenosine treated versus the untreated; **p<0.05, adenosine plus MRS1706 or ZM241385 versus the adenosine treated. (c) CCSM were isolated from penes of the wild type and A2BR-deficient mice and cultured with or without adenosine (100 μM), NECA (10 μM), a potent adenosine receptor agonist, forskolin (10 μM), an adenylyl cyclase agonist. […] N=4. *p<0.05, adenosine, forskolin and NECA treated versus the untreated control. (d) Corpus cavernosal strips (CCS) were isolated from wild type and A2BR-deficient mice and treated with different concentrations of adenosine in the presence or absence of L-NAME (100 μM) or MRS1706 (10 μM). 10 min after treatment, cellular extracts were collected and cGMP levels were measured by using a commercial enzyme immunoassay kit (Amersham Pharmacia). Data are expressed as mean±SE. *p<0.05, adenosine treated versus the control; **p<0.05, adenosine treated with MRS1706 versus the adenosine treated; ***p<0.05, CCS of A2BR-deficient mice treated with adenosine versus the CCS of wild type mice treated with adenosine. N=6-7. (e) CCSM were isolated from wild type and A2BR deficient mice and cultured with or without adenosine (100 μM), NECA (10 μM), a potent adenosine receptor agonist, forskolin (10 μM), an adenylyl cyclase agonist, or diethylamine-NONOate (DEA/NO) (10 μM). […] N=4. *p<0.05, DEA/NO treated versus to the untreated control. (f) Both cAMP and cGMP induction contribute to adenosine-mediated decreased PE-induced phosphorylation of myosin light chain (MLC). CCSM and CCS were isolated and cultured with the treatment of phenylephrine (PE-10 μM) in the presence or absence of adenosine (100 μM) or L-NAME (100 μM). 10 min after treatment, cellular extracts were isolated and western blot analysis were performed. The total MLC and phosphorylated MLC at S20 were detected by specific antibodies.
Isolation of primary corpus cavernosal smooth muscle cells (CCSM). Corpus cavernosum tissues were dissected as described above. Cavernosal tissue was washed in PBS and minced into […] pieces. Segments were incubated in 5-10 ml enzyme solutions containing 0.02% collagenase A (0.272 U/mg protein, Roche, Mannheim, Germany) and 0.5% elastase (3.73 U/mg protein, Cell system, St Katharinen, Germany) in a 75 mm flask at 37° C. for 6 hours. Enzymatic digestion was terminated by adding 10 ml DMEM supplemented with 10% fetal calf serum (FCS). […]
Tissue and corpus cavernosum smooth muscle cell (CCSM) cAMP and cGMP measurement. Quantitative assays for cAMP and cGMP were performed by using a commercial enzyme immunoassay kit (Amersham Pharmacia). […]

In the case of `Nc1ncnc2c1ncn2[C@@H]1O[C@H](CO)[C@@H](O)[C@H]1O` [adenosine], the cGMP levels is reported as “lack of significant differences in cGMP production” and the cGMP levels (listed as Adenosine) is reported as “had no effect”.
